Laboratory results: ChEMBL document CHEMBL1201862, “PubChem BioAssay data set” (2004)
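These data come from cells grown in 96-well plates and exposed to compound for 48 hours at five concentrations. GI50 = concentration required for 50% inhibition of growth.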 Active and inactive are the calls of the source. Cut-off read from the data, not from the text of the source: active = GI50 up to about 1.1 µM and inactive = higher.

How the values were obtained:
Experiment in all cases: inhibition of tumour cell growth, NCI panel, 48 h
DLD-1 = test system: DLD-1
EKVX = test system: EKVX
MOLT-4 = test system: MOLT-4
LXFL 529 = test system: LXFL 529
XF498 = test system: XF498
M14 = test system: M14
HCC 2998 = test system: HCC 2998
SN12C = test system: SN12C
SW-620 = test system: SW-620
SK-MEL-28 = test system: SK-MEL-28
ACHN = test system: ACHN
KM12 = test system: KM12
IGROV-1 = test system: IGROV-1
OVCAR-8 = test system: OVCAR-8
TK-10 = test system: TK-10
M19-MEL = test system: M19-MEL
HL-60 = test system: HL-60
RXF 631 = test system: RXF 631
CCRF-CEM = test system: CCRF-CEM
SK-MEL-5 = test system: SK-MEL-5
NCI-H522 = test system: NCI-H522
HOP-18 = test system: HOP-18
NCI-H460 = test system: NCI-H460
SF-268 = test system: SF-268
SK-OV-3 = test system: SK-OV-3
786-0 = test system: 786-0
K562 = test system: K562
NCI-H23 = test system: NCI-H23
UACC-62 = test system: UACC-62
Malme-3M = test system: Malme-3M
U-251 = test system: U-251
HCT-15 = test system: HCT-15
A498 = test system: A498
SF-539 = test system: SF-539
RPMI-8226 = test system: RPMI-8226
UO-31 = test system: UO-31
SNB-19 = test system: SNB-19
OVCAR-3 = test system: OVCAR-3
SK-MEL-2 = test system: SK-MEL-2
HT-29 = test system: HT-29
COLO 205 = test system: COLO 205
UACC-257 = test system: UACC-257
SR = test system: SR
LOX IMVI = test system: LOX IMVI
CAKI-1 = test system: CAKI-1
A549 = test system: A549
SF-295 = test system: SF-295
HCT-116 = test system: HCT-116
DMS-114 = test system: DMS-114
HOP-62 = test system: HOP-62
OVCAR-4 = test system: OVCAR-4
OVCAR-5 = test system: OVCAR-5
NCI-H226 = test system: NCI-H226
DMS-273 = test system: DMS-273
SNB-75 = test system: SNB-75
HOP-92 = test system: HOP-92
KM-20L2 = test system: KM-20L2
SNB-78 = test system: SNB-78
RXF 393 = test system: RXF 393

What does the source list for O=[N+]([O-])c1ccc(-c2ccc(C3=Nn4c(nnc4-c4ccc(Cl)cc4)SC3)o2)cc1?
GI50 (DLD-1): > 91.4 µM (inactive); GI50 (EKVX): > 100 µM (inactive); GI50 (MOLT-4): > 100 µM (inactive); GI50 (LXFL 529): > 100 µM (inactive); GI50 (XF498): 24.9 µM (inactive); GI50 (M14): > 100 µM (inactive); GI50 (HCC 2998): > 100 µM (inactive); GI50 (SN12C): 97.9 µM (inactive); GI50 (SW-620): > 100 µM (inactive); GI50 (SK-MEL-28): > 100 µM (inactive); GI50 (ACHN): 46.6 µM (inactive); GI50 (KM12): > 100 µM (inactive); GI50 (IGROV-1): 56 µM (inactive); GI50 (OVCAR-8): > 92 µM (inactive); GI50 (TK-10): 23.4 µM (inactive); GI50 (M19-MEL): > 100 µM (inactive); GI50 (HL-60): > 59 µM (inactive); GI50 (RXF 631): > 53.3 µM (inactive); GI50 (CCRF-CEM): > 100 µM (inactive); GI50 (SK-MEL-5): > 100 µM (inactive); GI50 (NCI-H522): > 89.3 µM (inactive); GI50 (HOP-18): > 100 µM (inactive); GI50 (NCI-H460): > 73.3 µM (inactive); GI50 (SF-268): > 100 µM (inactive); GI50 (SK-OV-3): > 82.4 µM (inactive); GI50 (786-0): 31.4 µM (inactive); GI50 (K562): > 100 µM (inactive); GI50 (NCI-H23): > 53.2 µM (inactive); GI50 (UACC-62): > 100 µM (inactive); GI50 (Malme-3M): > 52.5 µM (inactive); GI50 (U-251): 37.1 µM (inactive); GI50 (HCT-15): > 92.5 µM; GI50 (A498): 92.7 µM (inactive); GI50 (SF-539): > 100 µM (inactive); GI50 (RPMI-8226): > 100 µM (inactive); GI50 (UO-31): > 100 µM (inactive); GI50 (SNB-19): 30.3 µM (inactive); GI50 (OVCAR-3): 94.8 µM (inactive); GI50 (SK-MEL-2): 99.3 µM (inactive); GI50 (HT-29): > 100 µM (inactive); GI50 (COLO 205): > 100 µM (inactive); GI50 (UACC-257): > 100 µM (inactive); GI50 (SR): > 100 µM (inactive); GI50 (LOX IMVI): > 100 µM (inactive); GI50 (CAKI-1): > 100 µM (inactive); GI50 (A549): 47.1 µM (inactive); GI50 (SF-295): 26.5 µM (inactive); GI50 (HCT-116): 45 µM (inactive); GI50 (DMS-114): > 100 µM (inactive); GI50 (HOP-62): 31 µM (inactive); GI50 (OVCAR-4): > 100 µM (inactive); GI50 (OVCAR-5): > 100 µM (inactive); GI50 (NCI-H226): > 100 µM (inactive); GI50 (DMS-273): 67.9 µM (inactive); GI50 (SNB-75): 25.4 µM (inactive); GI50 (HOP-92): 38.5 µM (inactive); GI50 (KM-20L2): > 100 µM (inactive)

CSc1c(C)c(C)nn1-c1ccccc1 was tested. Which GI50 (DLD-1) did it give?
The GI50 was > 100 µM (inactive).

And the GI50 (EKVX)?
Its GI50 is > 100 µM (inactive).

And the GI50 (MOLT-4)?
Its GI50 is > 100 µM (inactive).

And the GI50 (LXFL 529)?
Its GI50 is > 100 µM (inactive).

And the GI50 (XF498)?
The GI50 was 59.8 µM (inactive).

What about the GI50 (M14) of the same compound?
Its GI50 is > 100 µM (inactive).

And the GI50 (HCC 2998)?
Its GI50 is > 100 µM (inactive).

And the GI50 (SN12C)?
The GI50 was > 100 µM (inactive).

And the GI50 (SW-620)?
The GI50 was > 100 µM (inactive).

And the GI50 (SK-MEL-28)?
The GI50 was > 100 µM (inactive).

What about the GI50 (ACHN) of the same compound?
Its GI50 is > 100 µM (inactive).

What about the GI50 (KM12) of the same compound?
The GI50 was > 100 µM (inactive).

What about the GI50 (IGROV-1) of the same compound?
Its GI50 is > 100 µM (inactive).

What about the GI50 (OVCAR-8) of the same compound?
The GI50 was > 100 µM (inactive).

What about the GI50 (TK-10) of the same compound?
The GI50 was > 100 µM (inactive).

And the GI50 (HL-60)?
Its GI50 is 81.1 µM (inactive).

And the GI50 (RXF 631)?
The GI50 was > 100 µM (inactive).

What about the GI50 (CCRF-CEM) of the same compound?
Its GI50 is > 100 µM (inactive).

What about the GI50 (SK-MEL-5) of the same compound?
The GI50 was > 100 µM (inactive).

And the GI50 (NCI-H522)?
Its GI50 is > 100 µM (inactive).

What about the GI50 (HOP-18) of the same compound?
Its GI50 is < 0.01 µM (active).

What about the GI50 (NCI-H460) of the same compound?
Its GI50 is > 100 µM (inactive).

What about the GI50 (SF-268) of the same compound?
Its GI50 is > 100 µM (inactive).

And the GI50 (SK-OV-3)?
Its GI50 is > 100 µM (inactive).

And the GI50 (786-0)?
The GI50 was > 100 µM (inactive).

What about the GI50 (K562) of the same compound?
The GI50 was > 100 µM (inactive).

What about the GI50 (NCI-H23) of the same compound?
Its GI50 is > 100 µM (inactive).

And the GI50 (UACC-62)?
The GI50 was > 100 µM (inactive).

And the GI50 (Malme-3M)?
Its GI50 is > 100 µM (inactive).

And the GI50 (SNB-78)?
The GI50 was > 100 µM (inactive).

What about the GI50 (U-251) of the same compound?
The GI50 was > 100 µM (inactive).

And the GI50 (HCT-15)?
Its GI50 is > 100 µM.

What about the GI50 (A498) of the same compound?
The GI50 was > 100 µM (inactive).

And the GI50 (SF-539)?
Its GI50 is > 100 µM (inactive).

And the GI50 (RPMI-8226)?
The GI50 was > 100 µM (inactive).

And the GI50 (RXF 393)?
The GI50 was > 100 µM (inactive).

And the GI50 (UO-31)?
Its GI50 is > 100 µM (inactive).

What about the GI50 (SNB-19) of the same compound?
The GI50 was > 100 µM (inactive).

And the GI50 (SK-MEL-2)?
Its GI50 is > 100 µM (inactive).

And the GI50 (HT-29)?
Its GI50 is > 100 µM (inactive).

And the GI50 (COLO 205)?
The GI50 was > 100 µM (inactive).

And the GI50 (UACC-257)?
Its GI50 is > 100 µM (inactive).

And the GI50 (LOX IMVI)?
The GI50 was > 100 µM (inactive).

And the GI50 (CAKI-1)?
Its GI50 is > 100 µM (inactive).

What about the GI50 (A549) of the same compound?
Its GI50 is > 100 µM (inactive).

And the GI50 (SF-295)?
Its GI50 is > 100 µM (inactive).

And the GI50 (DMS-114)?
Its GI50 is > 100 µM (inactive).

What about the GI50 (OVCAR-4) of the same compound?
Its GI50 is > 100 µM (inactive).

And the GI50 (OVCAR-5)?
The GI50 was > 100 µM (inactive).

And the GI50 (DMS-273)?
Its GI50 is > 100 µM (inactive).

And the GI50 (SNB-75)?
The GI50 was 58.2 µM (inactive).

And the GI50 (KM-20L2)?
Its GI50 is > 100 µM (inactive).
